Consider 1 molecule from publication PMC5908784, “Extracellular loops 2 and 3 of the calcitonin receptor selectively modify agonist binding and efficacy” (Biochemical Pharmacology, 2018).

Substitutions are numbered along the chain they refer to. pKi: −log10 of the molar value. Where a SMILES comes first, the peptide text is derived from it. Bridges are numbered along the chain shown (N, C = ends).

Test in all cases: Heterologous whole cell competition binding
Conditions in all cases: heterologous competition of 125I-sCT(8-32), whole cells, mean ± S.E.M., SEM

The target of one assay is T1, hCTR V357A (Homo sapiens, UniProt P30988, V357A).
T1 construct: c-Myc (N); expressed in transfected cells
T1 sequence (P30988 25-474 V357A): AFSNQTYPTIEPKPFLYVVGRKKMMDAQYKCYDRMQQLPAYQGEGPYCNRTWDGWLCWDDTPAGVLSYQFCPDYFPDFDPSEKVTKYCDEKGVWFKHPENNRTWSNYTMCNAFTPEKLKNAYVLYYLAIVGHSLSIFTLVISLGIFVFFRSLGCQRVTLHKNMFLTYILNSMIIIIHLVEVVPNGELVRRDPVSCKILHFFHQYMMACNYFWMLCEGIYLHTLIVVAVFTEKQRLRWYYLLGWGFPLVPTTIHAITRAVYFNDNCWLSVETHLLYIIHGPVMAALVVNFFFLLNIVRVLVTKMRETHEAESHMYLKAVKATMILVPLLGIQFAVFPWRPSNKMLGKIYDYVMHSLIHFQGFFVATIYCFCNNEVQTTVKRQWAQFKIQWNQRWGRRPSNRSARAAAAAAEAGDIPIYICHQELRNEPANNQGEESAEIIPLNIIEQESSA
As for the experimental part:
(§1) Following overnight incubation non-bound ligand was removed and radioactivity was determined using a gamma counter.
(§2) Data were corrected for radioligand occupancy using the Cheng-Prusoff equation in Prism; as such data are reported as pKi. Emax and EC50 were estimated from concentration-response curves using with a 3-parameter logistic equation in Prism (v7). These values are a composite of functional affinity, efficacy and stimulus response coupling. […] Significance was accepted at P < 0.05.

A further assay has as its target T2, hCTR R362A (Homo sapiens, UniProt P30988, R362A).
T2 construct: expressed in transfected cells
T2 sequence (P30988 25-474 R362A): T1 sequence (P30988 25-474 V357A) with A333V, R338A
As to the method:
as §1, §2

The target of a further assay is T3, hCTR K366A (Homo sapiens, UniProt P30988, K366A).
T3 construct: c-Myc (N); expressed in transfected cells
T3 sequence (P30988 25-474 K366A): T1 sequence (P30988 25-474 V357A) with A333V, K342A
As to the method: as §1, §2

The target in the next assay is T4, hCTR N365A (Homo sapiens, UniProt P30988, N365A).
T4 construct: c-Myc (N); expressed in transfected cells
T4 sequence (P30988 25-474 N365A): T1 sequence (P30988 25-474 V357A) with A333V, N341A
As to the method: as §1, §2

The target in another assay is T5, hCTR V375A (Homo sapiens, UniProt P30988, V375A).
T5 construct: c-Myc (N); expressed in transfected cells
T5 sequence (P30988 25-474 V375A): T1 sequence (P30988 25-474 V357A) with A333V, V351A
As for the experimental part:
as §1, §2

As to `CSCC[C@H](NC(=O)CNC(=O)[C@H](CO)NC(=O)[C@H](Cc1ccccc1)NC(=O)[C@H](CCCNC(=N)N)NC(=O)[C@H](Cc1c[nH]cn1)NC(=O)[C@H](Cc1ccccc1)NC(=O)[C@H](CC(N)=O)NC(=O)[C@H](CC(N)=O)NC(=O)[C@H](CC(C)C)NC(=O)[C@H](CC(N)=O)NC(=O)[C@H](CCCNC(=N)N)NC(=O)[C@H](Cc1c[nH]c2ccccc12)NC(=O)[C@H](Cc1ccc(O)cc1)NC(=O)[C@H](C)NC(=O)[C@H](CO)NC(=O)[C@H](CC(C)C)NC(=O)[C@@H](NC(=O)[C@@H]1CSSC[C@H](N)C(=O)N[C@@H](CO)C(=O)N[C@@H](CC(N)=O)C(=O)N[C@@H](CC(C)C)C(=O)N[C@@H](CO)C(=O)N[C@@H]([C@@H](C)O)C(=O)N1)C(C)C)C(=O)NCC(=O)N[C@@H](Cc1ccccc1)C(=O)NCC(=O)N1CCC[C@H]1C(=O)N[C@@H](CCC(=O)O)C(=O)N[C@H](C(=O)N1CCC[C@H]1C(N)=O)[C@@H](C)O` [pCT] (H-CSNLSTCVLSAYWRNLNNFHRFSGMGFGPETP-NH2; disulfide 1-7), the negative logarithm of the Ki (pKi) (as a rule, the negative decadic logarithm of the Ki, by convention in mol/L) at hCTR V357A is 7.89; on hCTR R362A, 7.33; on hCTR K366A it was 7.96; on hCTR N365A it was 8.68; at hCTR V375A, 8.29.
